Test results published in patent US20090176817A1, “Method of Treatment of Diarrhea-Predominant Irritable Bowel Syndrome in a Subject” (priority 2005, published 2009).

Tested on: diarrhea-predominant IBS subjects
Assay: Study S241.3.009: weekly diary questions on adequate relief
Type: in vivo, human
Conditions: for Responder rate, adequate relief of abnormal bowel habits / Responder rate, adequate relief of IBS symptoms / Responder rate, adequate relief of abdominal pain/discomfort: monthly LOCF imputation; for Responder rate, adequate relief of abnormal bowel habits / Overall responder rate, adequate relief of IBS symptoms / Overall responder rate, adequate relief of abdominal pain/discomfort / Overall responder rate, adequate relief of abnormal bowel habits / Number of months a subject was a responder: One month (Abdominal pain/discomfort) / Number of months a subject was a responder: One month (Abnormal bowel habits) / Number of months a subject was a responder: One month (IBS symptoms) / Number of months a subject was a responder: Three months (Abdominal pain/discomfort) / Number of months a subject was a responder: Three months (Abnormal bowel habits) / Number of months a subject was a responder: Three months (IBS symptoms) / Number of months a subject was a responder: Two months (Abdominal pain/discomfort) / Number of months a subject was a responder: Two months (Abnormal bowel habits) / Number of months a subject was a responder: Two months (IBS symptoms) / Number of months a subject was a responder: Zero months (Abdominal pain/discomfort) / Number of months a subject was a responder: Zero months (Abnormal bowel habits) / Number of months a subject was a responder: Zero months (IBS symptoms) / Responder rate, adequate relief of IBS symptoms / Responder rate, adequate relief of abdominal pain/discomfort: ITT, 2 mg TID; for Overall responder rate, adequate relief of IBS symptoms / Overall responder rate, adequate relief of abdominal pain/discomfort / Overall responder rate, adequate relief of abnormal bowel habits: 26-week treatment period, observed case; for Number of months a subject was a responder: One month (Abdominal pain/discomfort) / Number of months a subject was a responder: One month (Abnormal bowel habits) / Number of months a subject was a responder: One month (IBS symptoms) / Number of months a subject was a responder: Three months (Abdominal pain/discomfort) / Number of months a subject was a responder: Three months (Abnormal bowel habits) / Number of months a subject was a responder: Three months (IBS symptoms) / Number of months a subject was a responder: Two months (Abdominal pain/discomfort) / Number of months a subject was a responder: Two months (Abnormal bowel habits) / Number of months a subject was a responder: Two months (IBS symptoms) / Number of months a subject was a responder: Zero months (Abdominal pain/discomfort) / Number of months a subject was a responder: Zero months (Abnormal bowel habits) / Number of months a subject was a responder: Zero months (IBS symptoms): monthly LOCF
Experimental: Study S241.3.009 was a Phase III, a double-blind, placebo-controlled, randomized, multinational study to investigate the safety and efficacy of 2 mg TID of cilansetron over 26 weeks in diarrhea-predominant IBS subjects. The study was conducted in 146 multinational study centers. A total of 1307 subjects consented to participate, and 806 subjects were randomized. A total of 792 subjects were analyzed for efficacy and 799 subjects were analyzed for safety. Diagnosis and main criteria for inclusion were IBS subjects satisfying the Rome I criteria (1992); the diarrhea-predominant sub-population of the Rome II criteria; and a minimum abdominal pain/discomfort, stool frequency and consistency determined during the run-in period. Subjects were treated with cilansetron 2 mg tablets given orally TID or matching placebo tablets given orally TID for 26 weeks.
The primary efficacy parameter was the overall response rate for IBS symptoms, based on the weekly question concerning adequate relief of IBS symptoms (abdominal pain/discomfort, abnormal bowel habits) over the 26 weeks period. A responder was a subject who responded “yes” at least 50% of the time during his/her treatment period, with minimum treatment duration of four weeks. The two main secondary efficacy parameters were overall responder rate based on the weekly question on adequate relief of abdominal pain/discomfort and abnormal bowel habits during the 26-week treatment period. The onset of action of cilansetron was also examined using daily diary data (stool frequency, and ratings of urgency and severity) during the initial 8 weeks of trial participation. An additional key secondary efficacy parameter was the number of months (one month equals four weeks) up to six months (24-weeks) that a subject was a responder for IBS symptoms, where a responder was defined as a subject who answered the weekly question with “yes” at least twice for that month. The responder rate for the weekly diary questions on adequate relief at each month and all months, the adequate relief rate, the number of subjects with adequate relief by week, daily diary questions, IBS-QOL scores, and the interruption of activities were also assessed. Safety was evaluated by physical examination, ECG, vital signs, laboratory evaluations, concomitant medications, and AEs.
Studies S24 1.3.OO6, S24 1.3.0 1 1, and S24 1.3.009 used the following efficacy measurements: • The subjects answered the following three questions with “yes” or “no” using a phone diary at the end of each week: • a) During the last week, did you experience adequate relief of your IBS symptoms, such as abdominal pain, abdominal discomfort, abnormal bowel habits? • b) During the last week, did you experience adequate relief of your abdominal pain and/or discomfort? • c) During the last week, did you experience adequate relief of your abnormal bowel habits? • The subjects rated the following symptoms using the phone diary at the end of each day: • abdominal pain/discomfort (five-point scale); • stool consistency (seven-point Bristol Stool Scale); • stool frequency (number of bowel movements each day); • urgency (five-point scale); • straining (yes or no); • feeling of incomplete defecation (yes or no); • bloating or feeling of abdominal distension (five-point scale). • In Studies S241 A006 and S241.3.009, subjects completed the IBS-QOL Survey at Baseline (Day 1) and at the end of treatment. In Study S24 1.3.0 1 1, subjects completed the IBS-QOL Survey at Baseline (Day 1), at the end of the three-month treatment period, and at the end of rerandomized treatment.
In all three pivotal efficacy studies, the primary and main secondary efficacy parameters were based on the weekly diary questions on adequate relief and included the following: • 1. Number of months (one month equals four weeks) that a subject was a responder for the weekly diary questions on adequate relief. […]

## Cc1nccn1C[C@H]1CCc2c(c3cccc4c3n2CCC4)C1=O [Cilansetron, (R)-(−)-4,5,6,8,9,10-hexahydro-10-[(2-methyl-1H-imidazol-1-yl)methyl]-11H-pyrido-[3,2,1-jk]-carbazol-11-one]
Each month of Months 4 to 6
  Responder rate, adequate relief of abnormal bowel habits: 204 (52) n (%)
Female subjects
  Overall responder rate, adequate relief of IBS symptoms: 132 (63) n (%)
  Overall responder rate, adequate relief of abdominal pain/discomfort: 133 (64) n (%)
  Overall responder rate, adequate relief of abnormal bowel habits: 141 (67) n (%)
Female subjects, Months 1 to 3
  Number of months a subject was a responder: One month (Abdominal pain/discomfort): 30 (14) n (%)
  Number of months a subject was a responder: One month (Abnormal bowel habits): 25 (12) n (%)
  Number of months a subject was a responder: One month (IBS symptoms): 28 (13) n (%)
  Number of months a subject was a responder: Three months (Abdominal pain/discomfort): 93 (44) n (%)
  Number of months a subject was a responder: Three months (Abnormal bowel habits): 91 (44) n (%)
  Number of months a subject was a responder: Three months (IBS symptoms): 82 (39) n (%)
  Number of months a subject was a responder: Two months (Abdominal pain/discomfort): 36 (17) n (%)
  Number of months a subject was a responder: Two months (Abnormal bowel habits): 49 (23) n (%)
  Number of months a subject was a responder: Two months (IBS symptoms): 47 (22) n (%)
  Number of months a subject was a responder: Zero months (Abdominal pain/discomfort): 50 (24) n (%)
  Number of months a subject was a responder: Zero months (Abnormal bowel habits): 44 (21) n (%)
  Number of months a subject was a responder: Zero months (IBS symptoms): 52 (25) n (%)
Male subjects
  Overall responder rate, adequate relief of IBS symptoms: 102 (55) n (%)
  Overall responder rate, adequate relief of abdominal pain/discomfort: 106 (57) n (%)
  Overall responder rate, adequate relief of abnormal bowel habits: 112 (60) n (%)
Male subjects, Months 1 to 3
  Number of months a subject was a responder: One month (Abdominal pain/discomfort): 31 (17) n (%)
  Number of months a subject was a responder: One month (Abnormal bowel habits): 24 (13) n (%)
  Number of months a subject was a responder: One month (IBS symptoms): 27 (15) n (%)
  Number of months a subject was a responder: Three months (Abdominal pain/discomfort): 66 (35) n (%)
  Number of months a subject was a responder: Three months (Abnormal bowel habits): 74 (40) n (%)
  Number of months a subject was a responder: Three months (IBS symptoms): 68 (37) n (%)
  Number of months a subject was a responder: Two months (Abdominal pain/discomfort): 34 (18) n (%)
  Number of months a subject was a responder: Two months (Abnormal bowel habits): 34 (18) n (%)
  Number of months a subject was a responder: Two months (IBS symptoms): 33 (18) n (%)
  Number of months a subject was a responder: Zero months (Abdominal pain/discomfort): 55 (30) n (%)
  Number of months a subject was a responder: Zero months (Abnormal bowel habits): 54 (29) n (%)
  Number of months a subject was a responder: Zero months (IBS symptoms): 58 (31) n (%)
Month 1
  Responder rate, adequate relief of IBS symptoms: 193 (49) n (%)
  Responder rate, adequate relief of abdominal pain/discomfort: 199 (50) n (%)
  Responder rate, adequate relief of abnormal bowel habits: 214 (54) n (%)
Month 2
  Responder rate, adequate relief of IBS symptoms: 233 (59) n (%)
  Responder rate, adequate relief of abdominal pain/discomfort: 237 (60) n (%)
  Responder rate, adequate relief of abnormal bowel habits: 245 (62) n (%)
Month 3
  Responder rate, adequate relief of IBS symptoms: 239 (61) n (%)
  Responder rate, adequate relief of abdominal pain/discomfort: 242 (61) n (%)
  Responder rate, adequate relief of abnormal bowel habits: 251 (64) n (%)
Month 4
  Responder rate, adequate relief of IBS symptoms: 237 (60) n (%)
  Responder rate, adequate relief of abdominal pain/discomfort: 241 (61) n (%)
  Responder rate, adequate relief of abnormal bowel habits: 245 (62) n (%)
Month 5
  Responder rate, adequate relief of IBS symptoms: 237 (60) n (%)
  Responder rate, adequate relief of abdominal pain/discomfort: 242 (61) n (%)
  Responder rate, adequate relief of abnormal bowel habits: 247 (63) n (%)
Month 6
  Responder rate, adequate relief of IBS symptoms: 233 (59) n (%)
  Responder rate, adequate relief of abdominal pain/discomfort: 237 (60) n (%)
  Responder rate, adequate relief of abnormal bowel habits: 243 (62) n (%)
Months 1 to 3
  Median adequate relief rate, IBS symptoms: 0.58
  Median adequate relief rate, abdominal pain/discomfort: 0.58
  Median adequate relief rate, abnormal bowel habits: 0.67
  Overall responder rate, abdominal pain/discomfort: 56%
  Overall responder rate, abnormal bowel habits: 62%
Months 1 to 3, observed case
  Overall responder rate, IBS symptoms: 55%
Months 1 to 6
  Median adequate relief rate, IBS symptoms: 0.64
  Median adequate relief rate, abdominal pain/discomfort: 0.63
  Median adequate relief rate, abnormal bowel habits: 0.70
Romania
  Overall responder rate difference vs placebo across diary questions: −29% to −8
South Africa
  Overall responder rate difference vs placebo, each diary question: −23%
